ChEMBL document CHEMBL1148484, “Design, synthesis, and biological evaluation of doxorubicin-formaldehyde conjugates targeted to breast cancer cells” (J Med Chem, 2004)

Experiments:
[1] = biological target: Estrogen receptor (Homo sapiens, UniProt Q92731+P03372); conditions: mcf-7
Description: Inhibition of [3H]E2 binding to estrogen receptor alpha in MCF-7 cell lysate

[2] = tested on: MDA-MB-231; test: cells; conditions: Homo sapiens
Description: Inhibition of estrogen receptor negative MDA-MB-231 breast cancer cell proliferation

[3] = tested on: MDA-MB-435; test: cells; conditions: Homo sapiens
Description: Inhibition of MDA-MB-435 breast cancer cell proliferation

[4] = tested on: NCI/ADR-RES; test: cells; conditions: Homo sapiens
Description: Inhibition of MCF-7/Adr breast cancer cell proliferation

[5] = tested on: MCF7; test: cells; conditions: Homo sapiens
Description: Inhibition of estrogen receptor positive MCF-7 breast cancer cell proliferation

SMILES | IC50 [1] [nM] | IC50 [2] [nM] | IC50 [3] [nM] | IC50 [4] [nM] | IC50 [5] [nM]
CCC(c1ccccc1)C(c1ccc(O)cc1)c1ccc(OCCN(C)CCO/N=C/c2ccc(O)c(C(N)=O)c2)cc1 (centres undefined) | 300 |  |  |  | 
CC/C(=C(/c1ccc(O)cc1)c1ccc(OCCN(C)CCOCCOCCO/N=C/c2ccc(O)c(C(=O)NCNC3CC(O[C@H]4C[C@](O)(C(=O)CO)Cc5c(O)c6c(c(O)c54)C(=O)c4c(OC)cccc4C6=O)OC(C)C3O)c2)cc1)c1ccccc1 (some centres undefined) | 200 | 30 | 40 | 60 | 30
CCC(c1ccccc1)C(c1ccc(O)cc1)c1ccc(OCCN(C)CCOCCOCCO/N=C/c2ccc(O)c(C(N)=O)c2)cc1 (centres undefined) | 150 |  |  |  | 
CC/C(=C(/c1ccc(O)cc1)c1ccc(OCCN(C)CCOCCO/N=C/c2ccc(O)c(C(=O)NCNC3CC(O[C@H]4C[C@](O)(C(=O)CO)Cc5c(O)c6c(c(O)c54)C(=O)c4c(OC)cccc4C6=O)OC(C)C3O)c2)cc1)c1ccccc1 (some centres undefined) | 300 | 30 | 40 | 70 | 20
CC/C(=C(/c1ccc(O)cc1)c1ccc(OCN(C)C)cc1)c1ccccc1.COc1cccc2c1C(=O)c1c(O)c3c(c(O)c1C2=O)C[C@@](O)(C(=O)CO)C[C@@H]3O[C@H]1C[C@H](N)[C@H](O)[C@H](C)O1 |  | 100 | 100 | 2000 | 70
CCC(c1ccccc1)C(c1ccc(O)cc1)c1ccc(OCCN(C)CCOCCO/N=C/c2ccc(O)c(C(N)=O)c2)cc1 (centres undefined) | 150 |  |  |  | 
CC/C(=C(/c1ccc(O)cc1)c1ccc(OCCN(C)CCO/N=C/c2ccc(O)c(C(=O)NCNC3CC(O[C@H]4C[C@](O)(C(=O)CO)Cc5c(O)c6c(c(O)c54)C(=O)c4c(OC)cccc4C6=O)OC(C)C3O)c2)cc1)c1ccccc1 (some centres undefined) | 300 | 40 | 60 | 250 | 80
CC/C(=C(/c1ccc(O)cc1)c1ccc(OCN(C)C)cc1)c1ccccc1 | 5 | 30000 | 20000 | 40000 | 300
COc1cccc2c1C(=O)c1c(O)c3c(c(O)c1C2=O)C[C@@](O)(C(=O)CO)C[C@@H]3O[C@H]1C[C@H](N)[C@H](O)[C@H](C)O1 [DOXORUBICIN] |  | 300 | 150 | 10000 | 
CC/C(=C(\c1ccccc1)c1ccc(OCCN(C)C)cc1)c1ccccc1 [TAMOXIFEN] |  | 80 | 50 | 2000 | 70
